Laboratory results as given in US20230066946A1, “1,5-DIPHENYLPYRAZOLYL-3-OXYALKYL ACIDS AND 1-PHENYL-5-THIENYLPYRAZOLYL-3-OXYALKYL ACIDS AND THE USE THEREOF FOR CONTROL OF UNWANTED PLANT GROWTH” (Bayer Aktiengesellschaft, priority 2019, published 2023).
“And” between values parts separate entries of the source, which are not always exact repeats. Identical values can stand only once.

How the values were obtained:
[1] = system: ALOMY; assay: Pre-emergence herbicidal action against ALOMY; type: in vivo, Alopecurus myosuroides; conditions: scored visually after about 3 weeks vs untreated controls, 100% = plants have died, 0% = like control plants
Outline: (§1)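 Visual percent activity (100% = plants dead, 0% = like control) scored about 3 weeks after pre-emergence treatment in greenhouse. Compounds as WP or EC, applied to covering soil surface with 0.5% additive, 600 L/ha water, at 1280 or 320 g/ha.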

[2] = system: ECHCG; assay: Pre-emergence herbicidal action against ECHCG; type: in vivo, Echinochloa crus-galli; conditions: scored visually after about 3 weeks vs untreated controls, 100% = plants have died, 0% = like control plants
Outline: as §1

[3] = system: SETVI; assay: Pre-emergence herbicidal action against SETVI; type: in vivo, Setaria viridis; conditions: 1280 g/ha, scored visually after about 3 weeks vs untreated controls
Outline: as §1

[4] = system: AMARE; assay: Pre-emergence herbicidal action against AMARE; type: in vivo, Amaranthus retroflexus; conditions: scored visually after about 3 weeks vs untreated controls; for Pre-emergence action at 320 g/ha against AMARE in %: 100% = plants have died, 0% = like control plants; for Pre-emergence action against AMARE in %: 1280 g/ha
Outline: as §1

[5] = system: MATIN; assay: Pre-emergence herbicidal action against MATIN; type: in vivo, Matricaria inodora; conditions: 1280 g/ha, scored visually after about 3 weeks vs untreated controls
Outline: as §1

[6] = system: AVEFA; assay: Pre-emergence herbicidal action against AVEFA; type: in vivo, Avena fatua; conditions: scored visually after about 3 weeks vs untreated controls, 100% = plants have died, 0% = like control plants
From the text: (§2) Seeds of mono- and dicotyledonous weed plants are placed in plastic pots in sandy loam soil (doubly sown with one species each of mono- or dicotyledonous weed plants per pot) and covered with soil. The compounds of the invention, formulated in the form of wettable powders (WP) or as emulsion concentrates (EC), are then applied onto the surface of the covering soil as aqueous suspension or emulsion with addition of 0.5% additive at a water application rate equivalent to 600 litres per hectare. After the treatment, the pots are placed in a greenhouse and kept under good growth conditions for the trial plants. After about 3 weeks, the effect of the preparations is scored visually in comparison with untreated controls as percentages. For example, 100% activity=the plants have died, 0% activity=like control plants. [table] Tables 4.1-4.15 below show the effects of selected compounds of the general formula (I) according to Tables 1 to 3 on various harmful plants at an application rate corresponding to 1280 or 320 g/ha, which have been obtained by the aforementioned experimental method.

[7] = system: PHBPU; assay: Pre-emergence herbicidal action against PHBPU; type: in vivo, Pharbitis purpurea; conditions: 1280 g/ha, scored visually after about 3 weeks vs untreated controls
From the text: as §2

[8] = system: POLCO; assay: Pre-emergence herbicidal action against POLCO; type: in vivo, Polygonum convolvulus; conditions: 320 g/ha, scored visually after about 3 weeks vs untreated controls
Outline: as §1

[9] = system: STEME; assay: Pre-emergence herbicidal action against STEME; type: in vivo, Stellaria media; conditions: scored visually after about 3 weeks vs untreated controls
Outline: as §1

[10] = system: VIOTR; assay: Pre-emergence herbicidal action against VIOTR; type: in vivo, Viola tricolor; conditions: 1280 g/ha, scored visually after about 3 weeks vs untreated controls
Outline: as §1

[11] = system: VERPE; assay: Pre-emergence herbicidal action against VERPE; type: in vivo, Veronica persica; conditions: 320 g/ha, scored visually after about 3 weeks vs untreated controls
Outline: as §1

[12] = system: ALOMY; assay: Post-emergence herbicidal action against ALOMY; type: in vivo, Alopecurus myosuroides; conditions: 1280 g/ha, post-emergence at one-leaf stage, rated visually after about 3 weeks vs untreated controls
Outline: (§3)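 Greenhouse, sandy loam, one-leaf stage; compound as WP/EC at 1280 or 320 g/ha plus 0.5% additive (600 L/ha). Visual % activity at ~3 weeks relative to untreated plants.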

[13] = system: AVEFA; assay: Post-emergence herbicidal action against AVEFA; type: in vivo, Avena fatua; conditions: 1280 g/ha, post-emergence at one-leaf stage, rated visually after about 3 weeks vs untreated controls
Description: (§4) [table] Seeds of mono- and dicotyledonous weed plants are placed in plastic pots in sandy loam soil (twin sowing with one species each of mono- or dicotyledonous weed plants per pot), covered with soil and cultivated in a greenhouse under controlled growth conditions. 2 to 3 weeks after sowing, the test plants are treated at the one-leaf stage. The compounds of the invention, formulated in the form of wettable powders (WP) or as emulsion concentrates (EC), are applied to the green parts of the plants as aqueous suspension or emulsion with addition of 0.5% additive at a water application rate equivalent to 600 litres per hectare. After the test plants have been kept in the greenhouse under optimum growth conditions for about 3 weeks, the activity of the preparations is rated visually in comparison to untreated controls. For example, 100% activity=the plants have died, 0% activity=like control plants. Tables 5.1-5.16 below show the effects of selected compounds of the general formula (I) according to Tables 1 to 3 on various harmful plants at an application rate corresponding to 1280 or 320 g/ha, which have been obtained by the aforementioned experimental method.

[14] = system: LOLRI; assay: Post-emergence herbicidal action against LOLRI; type: in vivo, Lolium rigidum; conditions: 1280 g/ha, post-emergence at one-leaf stage, rated visually after about 3 weeks vs untreated controls
Description: as §4

[15] = system: AMARE; assay: Post-emergence herbicidal action against AMARE; type: in vivo, Amaranthus retroflexus; conditions: visual rating about 3 weeks after treatment
Outline: as §3

[16] = system: MATIN; assay: Post-emergence herbicidal action against MATIN; type: in vivo, Matricaria inodora; conditions: visual rating about 3 weeks after treatment
Outline: as §3

[17] = system: PHBPU; assay: Post-emergence herbicidal action against PHBPU; type: in vivo, Pharbitis purpurea; conditions: 320 g/ha, visual rating about 3 weeks after treatment
Outline: as §3

[18] = system: POLCO; assay: Post-emergence herbicidal action against POLCO; type: in vivo, Polygonum convolvulus; conditions: 320 g/ha, visual rating about 3 weeks after treatment
Outline: as §3

[19] = system: STEME; assay: Post-emergence herbicidal action against STEME; type: in vivo, Stellaria media; conditions: visual rating about 3 weeks after treatment
Outline: as §3

[20] = system: VERPE; assay: Post-emergence herbicidal action against VERPE; type: in vivo, Veronica persica; conditions: 320 g/ha, visual rating about 3 weeks after treatment
Outline: as §3

[21] = system: HORMU; assay: Post-emergence herbicidal action against HORMU; type: in vivo, Hordeum murinum; conditions: 320 g/ha, visual rating about 3 weeks after treatment
Outline: as §3

[22] = system: harmful plants; assay: Pre-emergence herbicidal action, summary of Tables 4.1-4.15; type: in vivo; conditions: result in words
Outline: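 Percent herbicidal action (100% = plants dead, 0% = like controls) was assessed visually about 3 weeks after treatment. Application rates of 1280 or 320 g/ha were applied to the covering soil of freshly sown sandy-loam pots, in 600 l/ha water with 0.5% additive, before emergence.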

[23] = system: CYPES; assay: Pre-emergence herbicidal action against CYPES; type: in vivo, Cyperus esculentus; conditions: scored visually after about 3 weeks vs untreated controls, 100% = plants have died, 0% = like control plants
Outline: as §1

[24] = system: ECHCG; assay: Post-emergence herbicidal action against ECHCG; type: in vivo, Echinochloa crus-galli; conditions: 1280 g/ha, post-emergence at one-leaf stage, rated visually after about 3 weeks vs untreated controls
Outline: as §3

[25] = system: VIOTR; assay: Post-emergence herbicidal action against VIOTR; type: in vivo, Viola tricolor; conditions: 320 g/ha, visual rating about 3 weeks after treatment
Outline: as §3

[26] = system: HORMU; assay: Pre-emergence herbicidal action against HORMU; type: in vivo, Hordeum murinum; conditions: 320 g/ha, scored visually after about 3 weeks vs untreated controls
From the text: as §2

[27] = system: SETVI; assay: Post-emergence herbicidal action against SETVI; type: in vivo, Setaria viridis; conditions: 1280 g/ha, post-emergence at one-leaf stage, rated visually after about 3 weeks vs untreated controls
Outline: as §3

| Compound | Pre-emergence action at 1280 g/ha against ALOMY in % [1] [%] | Pre-emergence action at 1280 g/ha against ECHCG in % [2] [%] | Pre-emergence action against SETVI in % [3] [%] | Pre-emergence action at 320 g/ha against AMARE in % [4] | Pre-emergence action against AMARE in % [4] [%] | Pre-emergence action against MATIN in % [5] [%] | Pre-emergence action at 1280 g/ha against AVEFA in % [6] [%] | Pre-emergence action against POLCO in % [8] [%] | Pre-emergence action against STEME in % ([9]; 1280 g/ha) [%] | Pre-emergence action against VIOTR in % [10] [%] | Post-emergence action against ALOMY in % [12] [%] | Post-emergence action against AVEFA in % [13] [%] | Post-emergence action against LOLRI in % [14] [%] | Post-emergence action against AMARE in % ([15]; 320 g/ha) [%] | Post-emergence action against AMARE in % ([15]; 1280 g/ha) [%] | Post-emergence action against MATIN in % ([16]; 320 g/ha) [%] | Post-emergence action against MATIN in % ([16]; 1280 g/ha) [%] | Post-emergence action against PHBPU in % [17] [%] | Post-emergence action against STEME in % ([19]; 1280 g/ha) [%] | herbicidal efficacy against harmful plants in the case of pre-emergence treatment [22] | also measured |
| --- | --- | --- | --- | --- | --- | --- | --- | --- | --- | --- | --- | --- | --- | --- | --- | --- | --- | --- | --- | --- | --- |
| O=C(O)COc1nn(-c2ccccc2)c(-c2ccc(F)cc2)c1Br [I-057] | 90 | 80 | 90 | 100% and 90% | 100 | 100 | 80 | 90 | 100 | 100 | 90 | 90 | 80 | 80 | 80 | 80 | 90 | 90 | 90 | good herbicidal efficacy | Pre-emergence action against PHBPU in % [7]: 90%; Pre-emergence action against STEME in % ([9]; 320 g/ha): 80%; Pre-emergence action against VERPE in % [11]: 90%; Post-emergence action against POLCO in % [18]: 80%; Post-emergence action against STEME in % ([19]; 320 g/ha): 80%; Post-emergence action against VERPE in % [20]: 80%; Post-emergence action against HORMU in % [21]: 80% |
| COC(=O)C(C)Oc1nn(-c2cccc(F)c2)c(-c2cccc(F)c2)c1C#N (stereo not drawn) [I-067] | 90 | 80 | 100 | 90% | 100 | 90 | 80 |  | 90 | 100 | 100 |  | 90 |  |  |  | 80 |  | 90 | good herbicidal efficacy | Pre-emergence action at 1280 g/ha against CYPES in % [23]: 90%; Post-emergence action against ECHCG in % [24]: 90%; Post-emergence action against STEME in % ([19]; 320 g/ha): 80%; Post-emergence action against VIOTR in % [25]: 80%; Post-emergence action against HORMU in % [21]: 80% |
| CCOC(=O)COc1nn(-c2ccccc2)c(-c2ccc(F)cc2)c1Br [I-056] | 90 |  | 100 | 80% | 100 | 90 | 80 | 80 | 100 | 80 | 90 | 90 |  | 80 | 80 | 80 | 80 | 80 | 90 | good herbicidal efficacy | Pre-emergence action at 1280 g/ha against CYPES in % [23]: 90%; Pre-emergence action against HORMU in % [26]: 80%; Post-emergence action against SETVI in % [27]: 80%; Post-emergence action against POLCO in % [18]: 80%; Post-emergence action against VERPE in % [20]: 90% |
